# Laboratory results reported in US9220719B2, “Single dose oral formulations and methods for treatment of cats with ectoparasiticidal spinosad” (priority 2012, dated 2015).
# Columns and labels:
# [1] = system: adult cat flea (Ctenocephalides felis); test: Dose determination: knockdown and residual effectiveness of spinosad (gelatin capsule) against adult fleas on experimentally infested cats (Example 1); format: in vivo; settings: for Geometric Mean Counts of Adult C. felis / Geometric Mean Percent Reduction of Adult C. felis Compared to Untreated Control Group: fed
# Description: The “knockdown” and “residual” effectiveness of spinosad can be evaluated following oral administration at four different single dosages, compared to a non-treated control group, against the adult cat flea (Ctenocephalides felis) on experimentally infested cats. A minimum effective oral dose in cats can be evaluated based on knockdown efficacy (i.e., on Day 1 following administration) and on residual efficacy (i.e., on Day 30 following administration) against the cat flea (Ctenocephalides felis).
# Forty cats can be evaluated in a randomized complete block design with cat gender and pretreatment live flea counts used as blocking factors. Five treatment groups of four female and four male cats per group can be orally dosed on Test Day 0: Group (1) can be administered 0 mg/kg vehicle control (empty gelatin capsule); Group (2) can be administered spinosad in a gelatin capsule at a dose of 35 mg/kg body weight; Group (3) can be administered spinosad in a gelatin capsule at a dose of 40 mg/kg body weight; Group (4) can be administered spinosad in a gelatin capsule at a dose of 45 mg/kg body weight; and Group (5) can be administered spinosad in a gelatin capsule at a dose of 50 mg/kg body weight. All cats can consume canned cat food just prior to dosing to ensure they were in a fed state. Each cat can be infested with approximately 100 newly emerged, unfed adult fleas (C. felis), on Test Days −6, −1, 5, 12, 19, 28 and 35. Individual animal flea counts can be performed approximately 48-hours post-infestation using the laboratory's comb counting method on Test Days −4, 1, 7, 14, 21, 30 and 37. The Day −4 pre-treatment live flea counts can be used to allocate animals to the five treatment groups. The Day 1, 7, 14, 21, 30 and 37 flea counts can be used to evaluate the knockdown (Day 1) and residual flea efficacy in each of the treated groups compared to the vehicle (negative) control group.
# [2] = Tolerability of oral spinosad in cats (Example 1); format: in vivo, cat; settings: single oral dose 35-50 mg/kg in gelatin capsule
# [3] = Pharmacokinetics of spinosad API capsules and spinosad tablets after oral administration to cats (Example 2); settings: in vivo
# Method: The plasma concentrations and resulting pharmacokinetics of spinosad tablets when administered orally to adult cats in the fed or fasted state can be evaluated. Twenty four cats (12 male and 12 female) can be dosed with approximately 80 mg/kg spinosad, as either API in gelatin capsules or as spinosad formulated chewable tablets. Serial blood samples can be collected through 672 hours (28 days) after dose administration. […] Samples can be immediately mixed by inversion several times and stored on ice until centrifuged. The plasma can be collected, split into two approximately equal aliquots and stored frozen at approximately −70° C. until shipped for analysis, and/or analyzed by a validated LC/MS/MS assay.
# [4] = Tolerability of flavored spinosad tablet in cats (Example 3); format: in vivo, cat; settings: beef flavored tablet 51.47 to 76.06 mg/kg single oral dose
# Description: In total, twenty-two (22) cats can be acclimatized for the study and from these, 17 can be selected based on pre-treatment weight and flea retention counts to be randomized into either a treated or control group. Nine cats can be assigned to the control group and eight cats can be assigned to the treatment group based on flea retention counts from Day −5. Cats in the treated group can be dosed on Day 0 with the intended final formulation, a beef flavored tablet containing spinosad at a dose rate of 50-75 mg/kg spinosad/body weight, while the cats in the control group can be dosed with a vehicle control tablet.
# Seventeen cats were randomized based on pre-treatment flea infestation counts into either a treated or control group. Eight cats were dosed on Day 0 with a beef flavored tablet containing spinosad with an overall dose range of 51.47 to 76.06 mg/kg spinosad body weight. The other nine cats were dosed with a vehicle control tablet.
# [5] = system: adult cat fleas (Ctenocephalides felis); test: Dose confirmation: efficacy of flavored spinosad tablet against fleas on experimentally infested cats (Example 4); format: in vivo; settings: flavored tablet 50-75 mg/kg single oral dose, fed
# Description: Confirmation of the efficacious dose of spinosad can be evaluated in cats experimentally infested with adult fleas (Ctenocephalides felis).
# Twenty-four (24) cats that meet the inclusion/exclusion criteria and had the highest pre-treatment live flea (C. felis) counts can be included in a randomized complete block design with pre-treatment live flea counts used as a blocking factor. Each cat can be infested with approximately 100 unfed adult fleas (C. felis) on Test Day −9. Pre-treatment live flea counts can be conducted using the laboratory's comb counting method on Test Day −7. The Test Day −7 live flea counts can be used to allocate cats to one of two treatment groups. The two treatment groups of 12 cats per group can be orally dosed on Test Day 0. One group (5 male: 7 female) can receive vehicle control (0 mg/kg placebo tablets) and the second group (7 male: 5 female) can receive flavored spinosad tablets at a dose rate of 50-75 mg/kg body weight. Cats can consume canned cat food just prior to dosing and can be offered their daily maintenance diet after dosing. Each cat can be infested with approximately 100 unfed adult fleas (C. felis) on Test Days −1, 5, 12, 19, 28 and 35. Individual animal live flea counts can be performed on Test Days 1, 7, 14, 21, 30 and 37.
# [6] = single oral dose 35 mg/kg in gelatin capsule, Day 7 post treatment
# [7] = single oral dose 35 mg/kg in gelatin capsule, Day 14 post treatment
# [8] = single oral dose 35 mg/kg in gelatin capsule, Day 21 post treatment
# [9] = single oral dose 35 mg/kg in gelatin capsule, Day 37 post treatment
# [10] = single oral dose 40 mg/kg in gelatin capsule, Day 7 post treatment
# [11] = single oral dose 40 mg/kg in gelatin capsule, Day 14 post treatment
# [12] = single oral dose 40 mg/kg in gelatin capsule, Day 21 post treatment
# [13] = single oral dose 40 mg/kg in gelatin capsule, Day 30 post treatment
# [14] = single oral dose 40 mg/kg in gelatin capsule, Day 37 post treatment
# [15] = single oral dose 45 mg/kg in gelatin capsule, Day 7 post treatment
# [16] = single oral dose 45 mg/kg in gelatin capsule, Day 14 post treatment
# [17] = single oral dose 45 mg/kg in gelatin capsule, Day 21 post treatment
# [18] = single oral dose 45 mg/kg in gelatin capsule, Day 37 post treatment
# [19] = single oral dose 50 mg/kg in gelatin capsule, Day 7 post treatment
# [20] = single oral dose 50 mg/kg in gelatin capsule, Day 14 post treatment
# [21] = single oral dose 50 mg/kg in gelatin capsule, Day 21 post treatment
# [22] = single oral dose 50 mg/kg in gelatin capsule, Day 30 post treatment
# [23] = single oral dose 50 mg/kg in gelatin capsule, Day 37 post treatment
substance,measurement,setting,value
spinosad,fleas at each comb count,"[1]; 50 mg/kg oral, up through Day 21",zero
same,post-treatment residual flea efficacy (geometric means),"[1]; all four spinosad groups (35, 40, 45, 50 mg/kg oral), up to and including Day 21 post-treatment",> 90%
same,Geometric Mean Counts of Adult C. felis,"[1]; single oral dose 35 mg/kg in gelatin capsule, Day 1 post treatment",(0.0)
same,Geometric Mean Percent Reduction of Adult C. felis Compared to Untreated Control Group,"[1]; single oral dose 35 mg/kg in gelatin capsule, Day 1 post treatment, 35 mg/kg",100%
same,Geometric Mean Counts of Adult C. felis,[1]; [6],(0.0)
same,Geometric Mean Percent Reduction of Adult C. felis Compared to Untreated Control Group,[1]; [6],100.00%
same,Geometric Mean Counts of Adult C. felis,[1]; [7],(0.2)
same,Geometric Mean Percent Reduction of Adult C. felis Compared to Untreated Control Group,[1]; [7],99.74%
same,Geometric Mean Counts of Adult C. felis,[1]; [8],(5.4)
same,Geometric Mean Percent Reduction of Adult C. felis Compared to Untreated Control Group,[1]; [8],92.94%
same,Geometric Mean Counts of Adult C. felis,"[1]; single oral dose 35 mg/kg in gelatin capsule, Day 30 post treatment",(11.8)
same,Geometric Mean Counts of Adult C. felis,[1]; [9],(32.4)
same,Geometric Mean Percent Reduction of Adult C. felis Compared to Untreated Control Group,[1]; [9],52.20%
same,Geometric Mean Counts of Adult C. felis,"[1]; single oral dose 40 mg/kg in gelatin capsule, Day 1 post treatment",(0.0)
same,Geometric Mean Percent Reduction of Adult C. felis Compared to Untreated Control Group,"[1]; single oral dose 40 mg/kg in gelatin capsule, Day 1 post treatment, 40 mg/kg",100%
same,Geometric Mean Counts of Adult C. felis,[1]; [10],(0.0)
same,Geometric Mean Percent Reduction of Adult C. felis Compared to Untreated Control Group,[1]; [10],100.00%
same,Geometric Mean Counts of Adult C. felis,[1]; [11],(0.0)
same,Geometric Mean Percent Reduction of Adult C. felis Compared to Untreated Control Group,[1]; [11],100.00%
same,Geometric Mean Counts of Adult C. felis,[1]; [12],(1.0)
same,Geometric Mean Percent Reduction of Adult C. felis Compared to Untreated Control Group,[1]; [12],98.74%
same,Geometric Mean Counts of Adult C. felis,[1]; [13],(5.2)
same,Geometric Mean Percent Reduction of Adult C. felis Compared to Untreated Control Group,[1]; [13],91.59%
same,Geometric Mean Counts of Adult C. felis,[1]; [14],(18.9)
same,Geometric Mean Percent Reduction of Adult C. felis Compared to Untreated Control Group,[1]; [14],72.18%
same,Geometric Mean Counts of Adult C. felis,"[1]; single oral dose 45 mg/kg in gelatin capsule, Day 1 post treatment",(0.0)
same,Geometric Mean Percent Reduction of Adult C. felis Compared to Untreated Control Group,"[1]; single oral dose 45 mg/kg in gelatin capsule, Day 1 post treatment, 45 mg/kg",100%
same,Geometric Mean Counts of Adult C. felis,[1]; [15],(0.4)
same,Geometric Mean Percent Reduction of Adult C. felis Compared to Untreated Control Group,[1]; [15],99.50%
same,Geometric Mean Counts of Adult C. felis,[1]; [16],(2.0)
same,Geometric Mean Percent Reduction of Adult C. felis Compared to Untreated Control Group,[1]; [16],97.22%
same,Geometric Mean Counts of Adult C. felis,[1]; [17],(4.6)
same,Geometric Mean Percent Reduction of Adult C. felis Compared to Untreated Control Group,[1]; [17],93.98%
same,Geometric Mean Counts of Adult C. felis,"[1]; single oral dose 45 mg/kg in gelatin capsule, Day 30 post treatment",(11.9)
same,Geometric Mean Counts of Adult C. felis,[1]; [18],(35.1)
same,Geometric Mean Percent Reduction of Adult C. felis Compared to Untreated Control Group,[1]; [18],48.29%
same,Geometric Mean Counts of Adult C. felis,"[1]; single oral dose 50 mg/kg in gelatin capsule, Day 1 post treatment",(0.0)
same,Geometric Mean Percent Reduction of Adult C. felis Compared to Untreated Control Group,"[1]; single oral dose 50 mg/kg in gelatin capsule, Day 1 post treatment, 50 mg/kg",100%
same,Geometric Mean Counts of Adult C. felis,[1]; [19],(0.0)
same,Geometric Mean Percent Reduction of Adult C. felis Compared to Untreated Control Group,[1]; [19],100.00%
same,Geometric Mean Counts of Adult C. felis,[1]; [20],(0.0)
same,Geometric Mean Percent Reduction of Adult C. felis Compared to Untreated Control Group,[1]; [20],100.00%
same,Geometric Mean Counts of Adult C. felis,[1]; [21],(0.0)
same,Geometric Mean Percent Reduction of Adult C. felis Compared to Untreated Control Group,[1]; [21],100.00%
same,Geometric Mean Counts of Adult C. felis,[1]; [22],(1.6)
same,Geometric Mean Percent Reduction of Adult C. felis Compared to Untreated Control Group,[1]; [22],97.33%
same,Geometric Mean Counts of Adult C. felis,[1]; [23],(8.5)
same,Geometric Mean Percent Reduction of Adult C. felis Compared to Untreated Control Group,[1]; [23],87.50%
same,tolerability,[2],well tolerated
same,AUC0-∞ in fed animals relative to fasted animals,[3],5-10 times
same,Cmax in fed animals relative to fasted animals,[3],4-7 times
same,tolerability,[4],adequately tolerated
same,knockdown efficacy based on geometric means,[5]; Day 1,100%
same,residual efficacy based on geometric means,[5]; Day 7,99.78%
same,residual efficacy based on geometric means,[5]; Day 14,99.57%
same,residual efficacy based on geometric means,[5]; Day 21,95.83%
same,residual efficacy based on geometric means,[5]; Day 30,90.77%
same,residual efficacy based on geometric means,[5]; Day 37,90.36%
